Results published in patent publication US20240277852A1, “INHIBITORS AND DEGRADERS OF PIP4K PROTEIN” (DANA-FARBER CANCER INSTITUTE, INC., priority 2021, published 2024).

Assays:
PIP4K2B = PIP4K2B (Homo sapiens (Human), UniProt P78356); assay: KINOMEscan PIP5K2B (also known as PIP4K2B) Assay (Eurofins Discovery); type: binding
Procedure: (§1) The inhibitory activity of the compounds were evaluated using KINOMEscan® PIP5K2B (also known as PIP4K2B) and KINOMEscan® PIP5K2C (also known as PIP4k2C) Assays (Eurofins Discovery) following the manufacturer's standards.

PIP4K2C = PIP4K2C (Homo sapiens (Human), UniProt Q8TBX8); assay: KINOMEscan PIP5K2C (also known as PIP4K2C) Assay (Eurofins Discovery); type: binding
Procedure: as §1

PIP4K2A = PIP4K2A (Homo sapiens (Human), UniProt P48426); assay: PIP4K2A inhibitory activity (Table 1); type: biochemical
Chain of PIP4K2A (P48426 whole entry, species assumed): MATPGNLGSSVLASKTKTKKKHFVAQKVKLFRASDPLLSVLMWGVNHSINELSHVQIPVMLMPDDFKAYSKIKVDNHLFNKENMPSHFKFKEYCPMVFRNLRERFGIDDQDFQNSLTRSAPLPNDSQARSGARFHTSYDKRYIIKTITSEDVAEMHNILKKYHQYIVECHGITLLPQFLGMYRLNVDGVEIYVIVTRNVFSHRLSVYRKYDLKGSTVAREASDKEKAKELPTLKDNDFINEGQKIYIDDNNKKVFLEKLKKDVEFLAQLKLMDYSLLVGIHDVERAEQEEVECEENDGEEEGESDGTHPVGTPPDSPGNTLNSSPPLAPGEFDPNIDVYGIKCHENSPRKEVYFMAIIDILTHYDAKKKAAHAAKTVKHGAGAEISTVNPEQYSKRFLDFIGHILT

Chain of PIP4K2C (Q8TBX8 whole entry): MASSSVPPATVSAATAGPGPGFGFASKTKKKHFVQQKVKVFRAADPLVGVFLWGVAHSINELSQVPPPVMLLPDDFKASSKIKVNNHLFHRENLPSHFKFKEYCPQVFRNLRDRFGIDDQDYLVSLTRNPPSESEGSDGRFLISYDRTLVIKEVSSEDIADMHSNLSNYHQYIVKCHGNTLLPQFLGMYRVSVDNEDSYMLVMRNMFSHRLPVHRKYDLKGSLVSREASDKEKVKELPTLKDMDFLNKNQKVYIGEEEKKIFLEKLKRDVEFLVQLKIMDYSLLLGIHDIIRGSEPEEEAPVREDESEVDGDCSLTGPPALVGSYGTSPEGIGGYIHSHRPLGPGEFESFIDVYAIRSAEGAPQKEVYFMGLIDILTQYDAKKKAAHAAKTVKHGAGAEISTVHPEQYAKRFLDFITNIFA
Chain of PIP4K2B (P78356 whole entry): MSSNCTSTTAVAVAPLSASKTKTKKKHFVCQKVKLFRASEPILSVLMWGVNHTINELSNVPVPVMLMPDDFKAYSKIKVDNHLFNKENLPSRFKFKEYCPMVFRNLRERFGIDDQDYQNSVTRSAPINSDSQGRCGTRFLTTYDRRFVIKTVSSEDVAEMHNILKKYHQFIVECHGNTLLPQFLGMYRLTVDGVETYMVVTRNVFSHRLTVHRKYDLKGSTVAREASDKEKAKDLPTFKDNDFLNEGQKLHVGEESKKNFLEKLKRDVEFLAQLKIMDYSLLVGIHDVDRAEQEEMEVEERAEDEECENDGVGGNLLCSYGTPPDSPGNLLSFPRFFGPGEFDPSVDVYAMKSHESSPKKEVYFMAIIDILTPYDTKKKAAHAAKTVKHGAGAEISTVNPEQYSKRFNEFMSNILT

Kd (PIP4K2B)	Kd (PIP4K2C)	IC50 (PIP4K2A)	Compound
> 10000 nM	1400 nM	–	CC(=O)Nc1ccc(C)c(Nc2ncc(Cl)c(-c3cccc(-c4ccccc4)c3)n2)c1 [Compound 9, N-(3-((4-([1,1′-biphenyl]-3-yl)-5-chloropyrimidin-2-yl)amino)-4-methylphenyl)acetamide]
> 10000 nM	36 nM	> 10000 nM	Cc1cc(S(N)(=O)=O)ccc1Nc1ncc(Cl)c(-c2cccc(-c3ccccc3)c2)n1 [Compound 1]
> 10000 nM	7.2 nM	–	CC(=O)Nc1cncc(Nc2ncc(Cl)c(-c3cccc(-c4ccccc4)c3)n2)c1 [Compound 11, N-(5-((4-([1,1′-biphenyl]-3-yl)-5-chloropyrimidin-2-yl)amino)pyridin-3-yl)acetamide]
> 10000 nM	620 nM	–	Cc1ncsc1-c1ccc(CNC(=O)[C@@H]2C[C@@H](O)CN2C(=O)[C@@H](NC(=O)C2(F)CC2)C(C)(C)C)c(OCCCCCCC(=O)N2CCC3(CC2)CCN(c2cncc(Nc4ncc(Cl)c(-c5cccc(-c6ccccc6)c5)n4)c2)C3=O)c1 [Compound 56, (2S,4R)—N-(2-((7-(2-(5-((4-([1,1′-biphenyl]-3-yl)-5-chloropyrimidin-2-yl)amino)pyridin-3-yl)-1-oxo-2,8-diazaspiro[4,5]decan-8-yl)-7-oxoheptyl)oxy)-4-(4-methylthiazol-5-yl)benzyl)-1-((S)-2(1-fluorocyclopropane-1-carboxamido)-3,3-dimethylbutanoyl)-4-hydroxypyrrolidine-2-carboxamide]
> 10000 nM	42 nM	–	Cc1ncsc1-c1ccc([C@H](C)NC(=O)[C@@H]2C[C@@H](O)CN2C(=O)[C@@H](NC(=O)CCCCCC(=O)N2CCC3(CC2)CCN(c2cncc(Nc4ncc(Cl)c(-c5cccc(-c6ccccc6)c5)n4)c2)C3=O)C(C)(C)C)cc1 [Compound 57]
–	65 nM	–	Cc1ccc(C(N)=O)cc1Nc1ncc(Cl)c(-c2cccc(-c3ccccc3)c2)n1 [Compound 10, 3-((4-([1,1′-biphenyl]-3-yl)-5-chloropyrimidin-2-yl)amino)-4-methylbenzamide]
> 10000 nM	38 nM	–	O=C(Nc1cncc(Nc2ncc(Cl)c(-c3cccc(-c4cccnc4)c3)n2)c1)c1ccccc1 [Compound 14]
–	43 nM	–	Cc1cc(NS(C)(=O)=O)ccc1Nc1ncc(Cl)c(-c2cccc(-c3ccccc3)c2)n1 [Compound 6, N-(4-((4-([1,1′-biphenyl]-3-yl)-5-chloropyrimidin-2-yl)amino)-3-methylphenyl)methanesulfonamide]
> 10000 nM	56 nM	> 10000 nM	CC(=O)N(CC#N)S(=O)(=O)c1ccc(Nc2ncc(Cl)c(-c3cccc(-c4ccccc4)c3)n2)c(C)c1 [Compound 2]
> 10000 nM	29 nM	8760 nM	CC(=O)N(C)S(=O)(=O)c1ccc(Nc2ncc(Cl)c(-c3cccc(-c4ccccc4)c3)n2)c(C)c1 [Compound 3, N-((4-((4-([1,1′-biphenyl]-3-yl)-5-chloropyrimidin-2-yl)amino)-3-methylphenyl)sulfonyl)-N-methylacetamide]
–	270 nM	–	CC(=O)Nc1ccc(Nc2ncc(Cl)c(-c3cccc(-c4ccccc4)c3)n2)c(C)c1 [Compound 8, N-(4-((4-([1,1′-biphenyl]-3-yl)-5-chloropyrimidin-2-yl)amino)-3-methylphenyl)acetamide]
> 10000 nM	21 nM	–	O=C(Nc1cncc(Nc2ncc(Cl)c(-c3cccc(-c4ccccc4)c3)n2)c1)c1ccccc1 [Compound 13, N-(5-((4-([1,1′-biphenyl]-3-yl)-5-chloropyrimidin-2-yl)amino)pyridin-3-yl)benzamide]
–	46 nM	–	Cc1cc(C(N)=O)ccc1Nc1ncc(Cl)c(-c2cccc(-c3ccccc3)c2)n1 [Compound 5, 4-((4-([1,1′-biphenyl]-3-yl)-5-chloropyrimidin-2-yl)amino)-3-methylbenzamide]
–	150 nM	–	Cc1ccc(NS(C)(=O)=O)cc1Nc1ncc(Cl)c(-c2cccc(-c3ccccc3)c2)n1 [Compound 7, N-(3-((4-([1,1′-biphenyl]-3-yl)-5-chloropyrimidin-2-yl)amino)-4-methylphenyl)methanesulfonamide]
> 10000 nM	0.45 nM	–	O=C1CC[C@H]2COc3ncc(Nc4ncc(Cl)c(-c5cccc(-c6ccccc6)c5)n4)cc3N12 [Compound 15, (S)-2-((4-([1,1′-biphenyl]-3-yl)-5-chloropyrimidin-2-yl)amino)-6,6a,7,8-tetrahydro-9H-pyrido[2,3-b]pyrrolo[1,2-d][1,4]oxazin-9-one]
> 10000 nM	64 nM	> 10000 nM	NS(=O)(=O)c1ccc(Nc2ncc(Cl)c(-c3cccc(-c4ccccc4)c3)n2)cc1 [Compound 4]
–	110 nM	–	CC(=O)N[C@H](C(=O)N1C[C@H](O)C[C@H]1C(=O)N[C@@H](C)c1ccc(-c2scnc2C)cc1OCCCCCNC(=O)CCC(=O)Nc1cncc(Nc2ncc(Cl)c(-c3cccc(-c4ccccc4)c3)n2)c1)C(C)(C)C [Compound 53, N1-(5-((4-([1,1′-biphenyl]-3-yl)-5-chloropyrimidin-2-yl)amino)pyridin-3-yl)-N4-(5-(2-((S)-1-((2S,4R)-1-((S)-2-acetamido-3,3-dimethylbutanoyl)-4-hydroxypyrrolidine-2-carboxamido)ethyl)-5-(4-methylthiazol-5-yl)phenoxy)pentyl)succinimide]
> 10000 nM	140 nM	–	O=C(Nc1cccc(Nc2ncc(Cl)c(-c3cccc(-c4ccccc4)c3)n2)c1)c1ccccc1 [Compound 12, N-(3-((4-([1,1′-biphenyl]-3-yl)-5-chloropyrimidin-2-yl)amino)phenyl)benzamide]
–	460 nM	–	O=C(COc1cccc2c1C(=O)N(C1CCC(=O)NC1=O)C2=O)NCCOCCOCCNS(=O)(=O)c1ccc(Nc2ncc(Cl)c(-c3cccc(-c4ccccc4)c3)n2)cc1 (centres unmarked) [Compound 36, N-(2-(2-(2-((4-((4-([1,1′-biphenyl]-3-yl)-5-chloro-1|4-pyrimidin-2-yl)amino)phenyl)sulfonamido)ethoxy)ethoxy)ethyl)-2-((2-(2,6-dioxopiperidin-3-yl)-1,3-dioxoisoindolin-4-yl)oxy)acetamide]
